Calls of active or inactive are those of the source. The rule behind the calls is not given here.
Columns and labels:
[1] = Antiproliferative activity against human K562/4 cells after 72 hrs by MTT assay; settings: K562/4, 72 h
PBL = experiment: Cytotoxicity against human PBL assessed as reduction in cell viability after 72 hrs by MTT assay; assay type: cell-based
K562 = experiment: Binding affinity to P-gp in human K562 cells assessed as drug accumulation at 1 uM incubated for 1 to 24 hrs by flow cytometry; assay type: cell-based
K562/4 = experiment: Binding affinity to P-gp in human K562/4 cells assessed as drug accumulation at 1 uM incubated for 1 to 24 hrs by flow cytometry; assay type: cell-based
[2] = Cell cycle arrest in human HCT116 cells assessed as accumulation in G2/M phase at 1 uM after 24 hrs; assay type: functional, cell-based; settings: HCT-116
[3] = Cell cycle arrest in p53 knockout human HCT116 cells assessed as accumulation in G2/M phase at 1 uM after 24 hrs; assay type: functional, cell-based; settings: HCT-116
HCT-116 [4] = experiment: Induction of apoptosis in human HCT116 cells assessed as viable cells at 1 uM after 24 hrs by Annexin V-FITC/propidium iodide staining based assay (reference value: 95 +/- 2%); assay type: functional
[5] = Cell cycle arrest in human HCT116 cells assessed as accumulation in sub G1 phase at 1 uM after 24 to 48 hrs relative to control; assay type: functional, cell-based; settings: HCT-116
[6] = Cell cycle arrest in p53 knockout human HCT116 cells assessed as decrease in G1 phase at 1 uM after 24 hrs; assay type: functional, cell-based; settings: HCT-116
[7] = Cell cycle arrest in human HCT116 cells assessed as decrease in S phase at 1 uM after 24 hrs; assay type: functional, cell-based; settings: HCT-116
[8] = Cell cycle arrest in p53 knockout human HCT116 cells assessed as decrease in S phase at 1 uM after 24 hrs; assay type: functional, cell-based; settings: HCT-116
HCT-116 [9] = experiment: Induction of apoptosis in human HCT116 cells assessed as early apoptotic cells at 1 uM after 48 hrs by Annexin V-FITC/propidium iodide staining based assay (reference value: 2 +/- 1%); assay type: functional
HCT-116 [10] = experiment: Induction of apoptosis in human HCT116 cells assessed as late apoptotic cells at 1 uM after 48 hrs by Annexin V-FITC/propidium iodide staining based assay (reference value: 1 +/- 1%); assay type: functional
HCT-116 [11] = experiment: Induction of apoptosis in human HCT116 cells assessed as necrotic cells at 1 uM after 24 hrs by Annexin V-FITC/propidium iodide staining based assay (reference value: 2 +/- 1%); assay type: functional
HCT-116 [12] = experiment: Induction of apoptosis in human HCT116 cells assessed as necrotic cells at 1 uM after 48 hrs by Annexin V-FITC/propidium iodide staining based assay (reference value: 2 +/- 1%); assay type: functional
HCT-116 [13] = experiment: Induction of apoptosis in p53 knockout human HCT116 cells assessed as viable cells at 1 uM after 24 hrs by Annexin V-FITC/propidium iodide staining based assay (reference value: 93 +/- 3%); assay type: functional
HCT-116 [14] = experiment: Induction of apoptosis in p53 knockout human HCT116 cells assessed as viable cells at 1 uM after 48 hrs by Annexin V-FITC/propidium iodide staining based assay (reference value: 93 +/- 3%); assay type: functional
HCT-116 [15] = experiment: Induction of apoptosis in p53 knockout human HCT116 cells assessed as early apoptotic cells at 1 uM after 24 hrs by Annexin V-FITC/propidium iodide staining based assay (reference value: 2 +/- 1%); assay type: functional
HCT-116 [16] = experiment: Induction of apoptosis in p53 knockout human HCT116 cells assessed as late apoptotic cells at 1 uM after 24 hrs by Annexin V-FITC/propidium iodide staining based assay (reference value: 2 +/- 1%); assay type: functional
HCT-116 [17] = experiment: Induction of apoptosis in p53 knockout human HCT116 cells assessed as late apoptotic cells at 1 uM after 48 hrs by Annexin V-FITC/propidium iodide staining based assay (reference value: 2 +/- 1%); assay type: functional
HCT-116 [18] = experiment: Induction of apoptosis in p53 knockout human HCT116 cells assessed as necrotic cells at 1 uM after 24 hrs by Annexin V-FITC/propidium iodide staining based assay (reference value: 2 +/- 1%); assay type: functional
Calf thymus DNA [19] = experiment: Binding affinity to calf thymus DNA assessed as decrease in extinction of absorption maxima at 5 uM by spectrophotometric analysis; assay type: nucleic-acid assay; parameters: scale not given: the % may be the effect or the level left; settings: Bos taurus
Calf thymus DNA [20] = experiment: Binding affinity to calf thymus DNA at 5 uM by fluorescence assay; assay type: nucleic-acid assay; settings: Bos taurus
[21] = biological target: T1, DNA topoisomerase 1 (Homo sapiens) (UniProt P11387); experiment: Inhibition of topoisomerase 1 (unknown origin) assessed as attenuation of enzyme-mediated relaxation of supercoiled pBR322 DNA after 30 mins by agarose gel electrophoresis
T1 sequence (whole entry): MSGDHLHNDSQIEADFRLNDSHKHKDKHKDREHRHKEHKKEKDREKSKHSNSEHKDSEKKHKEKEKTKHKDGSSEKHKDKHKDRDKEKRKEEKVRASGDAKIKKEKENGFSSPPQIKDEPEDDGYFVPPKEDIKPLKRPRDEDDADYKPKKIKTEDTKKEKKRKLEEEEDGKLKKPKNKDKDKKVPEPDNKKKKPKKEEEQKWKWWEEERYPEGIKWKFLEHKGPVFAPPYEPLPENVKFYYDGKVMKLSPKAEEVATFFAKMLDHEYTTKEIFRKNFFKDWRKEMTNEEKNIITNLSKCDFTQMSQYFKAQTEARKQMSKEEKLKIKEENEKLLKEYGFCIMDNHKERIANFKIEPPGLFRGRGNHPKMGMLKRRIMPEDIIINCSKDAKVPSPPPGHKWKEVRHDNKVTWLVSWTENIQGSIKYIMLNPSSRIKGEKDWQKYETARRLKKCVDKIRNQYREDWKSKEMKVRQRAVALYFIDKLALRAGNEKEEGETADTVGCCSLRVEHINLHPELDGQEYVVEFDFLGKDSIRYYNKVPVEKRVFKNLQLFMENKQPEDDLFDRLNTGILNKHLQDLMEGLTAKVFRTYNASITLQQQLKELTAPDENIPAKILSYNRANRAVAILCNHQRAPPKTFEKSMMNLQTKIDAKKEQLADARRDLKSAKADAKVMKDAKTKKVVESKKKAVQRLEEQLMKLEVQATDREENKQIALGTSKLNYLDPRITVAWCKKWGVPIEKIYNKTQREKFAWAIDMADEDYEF

[22] = biological target: T1, DNA topoisomerase 1 (Homo sapiens); experiment: Inhibition of topoisomerase 1 (unknown origin) assessed as attenuation of enzyme-mediated relaxation of supercoiled pBR322 DNA up to 1 uM after 30 mins by agarose gel electrophoresis
[23] = biological target: DNA topoisomerase 2-alpha (Homo sapiens) (UniProt P11388); experiment: Inhibition of human topoisomerase 2-alpha assessed as attenuation of enzyme-mediated relaxation of supercoiled pBR322 DNA at 40 uM after 30 mins by agarose gel electrophoresis
P388 [24] = experiment: Antitumor activity against mouse P388 cells transplanted in DBA2/BDF1 mouse assessed as mean life span at 50 mg/kg, ip dosed daily for 5 days (reference value: 9.7 +/- 1.1 day); assay type: functional
P388 [25] = experiment: Antitumor activity against mouse P388 cells transplanted in DBA2/BDF1 mouse assessed as mean life span at 30 mg/kg, ip dosed daily for 5 days relative to control; assay type: functional
[26] = Toxicity in ip dosed DBA2/BDF1 mouse transplanted with mouse P388 cells dosed daily for 5 days; assay type: organism-based; settings: in vivo
[27] = HCT-116, 24 h, read-out: Activity

DNA topoisomerase 2-alpha (Homo sapiens), sequence (P11388 whole entry): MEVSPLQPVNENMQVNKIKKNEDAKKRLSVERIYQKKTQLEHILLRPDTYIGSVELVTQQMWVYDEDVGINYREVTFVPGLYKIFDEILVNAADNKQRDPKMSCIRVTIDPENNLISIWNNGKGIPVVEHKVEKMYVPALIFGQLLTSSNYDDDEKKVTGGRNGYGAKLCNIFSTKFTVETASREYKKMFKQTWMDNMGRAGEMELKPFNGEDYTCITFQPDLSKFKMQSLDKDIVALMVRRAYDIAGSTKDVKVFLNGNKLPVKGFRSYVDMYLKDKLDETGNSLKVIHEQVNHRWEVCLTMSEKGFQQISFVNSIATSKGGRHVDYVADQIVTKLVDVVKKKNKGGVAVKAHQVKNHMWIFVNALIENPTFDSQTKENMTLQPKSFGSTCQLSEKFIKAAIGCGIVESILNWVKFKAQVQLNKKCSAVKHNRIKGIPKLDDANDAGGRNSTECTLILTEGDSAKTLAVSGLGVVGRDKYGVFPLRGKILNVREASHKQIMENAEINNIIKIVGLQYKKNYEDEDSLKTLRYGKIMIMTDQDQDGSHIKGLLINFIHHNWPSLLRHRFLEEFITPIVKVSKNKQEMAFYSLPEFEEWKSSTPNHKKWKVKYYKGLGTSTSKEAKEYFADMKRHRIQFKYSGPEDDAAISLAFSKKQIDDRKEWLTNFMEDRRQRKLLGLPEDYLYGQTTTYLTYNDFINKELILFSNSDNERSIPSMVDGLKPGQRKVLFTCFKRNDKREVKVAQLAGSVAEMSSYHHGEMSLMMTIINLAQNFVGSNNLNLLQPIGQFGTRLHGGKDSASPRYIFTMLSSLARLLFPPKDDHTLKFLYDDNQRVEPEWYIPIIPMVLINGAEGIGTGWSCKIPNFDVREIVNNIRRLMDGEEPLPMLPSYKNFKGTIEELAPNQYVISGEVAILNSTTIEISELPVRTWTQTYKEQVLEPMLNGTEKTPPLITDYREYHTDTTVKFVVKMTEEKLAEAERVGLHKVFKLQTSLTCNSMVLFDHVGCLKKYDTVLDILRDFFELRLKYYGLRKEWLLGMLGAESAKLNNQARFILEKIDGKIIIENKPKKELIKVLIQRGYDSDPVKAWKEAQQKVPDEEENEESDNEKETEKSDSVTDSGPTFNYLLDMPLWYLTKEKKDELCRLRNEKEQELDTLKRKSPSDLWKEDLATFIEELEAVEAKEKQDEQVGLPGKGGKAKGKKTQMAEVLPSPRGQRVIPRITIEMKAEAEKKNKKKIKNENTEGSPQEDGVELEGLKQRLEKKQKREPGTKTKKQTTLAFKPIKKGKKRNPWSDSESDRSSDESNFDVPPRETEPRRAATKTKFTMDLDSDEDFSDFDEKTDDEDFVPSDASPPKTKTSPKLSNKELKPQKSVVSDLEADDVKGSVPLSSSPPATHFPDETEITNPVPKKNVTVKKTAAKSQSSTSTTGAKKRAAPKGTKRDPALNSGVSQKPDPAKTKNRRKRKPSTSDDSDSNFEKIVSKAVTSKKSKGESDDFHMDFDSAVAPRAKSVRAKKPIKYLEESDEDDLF

SMILES	IC50 [1] [nM]	Activity (PBL)	Activity (K562)	Activity (K562/4)	Activity [2]	Activity [3]	Activity [5] [%]	Activity [6]	Activity [7]	Activity [8]	Activity (HCT-116 [9])	Activity (HCT-116 [10])	Activity (HCT-116 [11])	Activity (HCT-116 [12])	Activity (HCT-116 [15])	Activity (HCT-116 [16])	Activity (HCT-116 [17])	Activity (HCT-116 [18])	Activity (Calf thymus DNA [19]) [%]	Activity (Calf thymus DNA [20])	other results
CS(=O)(=O)O.Cc1oc2c(O)c3c(c(O)c2c1C(=O)N1CC[C@@H](N)C1)C(=O)c1ccccc1C3=O	1300	Non-toxic	inactive	inactive	Active	Active	> 70	Active	Active	Active	Active	Active	Active	Active	Active	Active	Active	Active	36	Active	Activity (HCT-116 [4]): Active; Activity (HCT-116 [13]): Active; Activity (HCT-116 [14]): Active; Activity [21]: Dose-dependent effect; Activity [22]: inactive; Activity [23]: Active; Activity (P388 [24]): 17.3 days; Activity (P388 [25]): 122%; MTD at 120 h [26]: 50 mg/kg
CS(=O)(=O)O.Cc1oc2c(O)c3c(c(O)c2c1C(=O)N1CC[C@H](N)C1)C(=O)c1ccccc1C3=O	1400	Non-toxic	inactive	inactive	Active	Active	> 70	Active	Active	Active	45%	13%	10%	30%	17%	12%	14%	11%	36	Active	viability at 1 µM (HCT-116 [4]; [27]): 58%; viability at 1 µM (HCT-116 [13]; [27]): 54%; viability at 1 µM (HCT-116 [14]; HCT-116, 48 h, read-out: Activity): 7%; Activity [21]: Dose-dependent effect; Activity [22]: inactive; Activity [23]: Active; Activity (P388 [24]): 6.5 days; Activity (P388 [25]): 214%; MTD at 120 h [26]: 30 mg/kg
